Source: Sander's compilation of Henry's law constants (doi:10.1021/es00099a010)

Test: Henry solubility constant Hcp at 298.15 K (mol/(m3 Pa))
Settings: reference: Atlas et al. (1982)

| Structure (SMILES) | Henry solubility constant Hcp |
| --- | --- |
| Clc1ccc(-c2ccccc2Cl)cc1 [2,4'-dichlorobiphenyl] | 0.01 |
| ClC1=C(Cl)[C@]2(Cl)[C@@H]3[C@@H](Cl)[C@@H](Cl)C[C@@H]3[C@@]1(Cl)C2(Cl)Cl [cis-chlordane] | 0.011 |
| Clc1cccc(-c2cccc(Cl)c2Cl)c1 [2,3,3'-trichlorobiphenyl] | 0.012 |
| Clc1ccc(-c2cc(Cl)ccc2Cl)cc1 [2,4',5-trichlorobiphenyl] | 0.011 |
| Clc1ccc(Cl)c(-c2cccc(Cl)c2Cl)c1 [2,2',3,5'-tetrachlorobiphenyl] | 0.013 |
| Clc1ccc(Cl)c(-c2ccccc2Cl)c1 [2,2',5-trichlorobiphenyl] | 0.0099 |
| Clc1ccc(Cl)c(-c2cc(Cl)ccc2Cl)c1 [2,2',5,5'-tetrachlorobiphenyl] | 0.011 |
| Clc1cc(Cl)c(-c2ccccc2Cl)c(Cl)c1 [2,2',4,6-tetrachlorobiphenyl] | 0.013 |
| Clc1ccccc1-c1cccc(Cl)c1Cl [2,2',3-trichlorobiphenyl] | 0.012 |
| ClC1=C(Cl)[C@]2(Cl)[C@H]3[C@H](Cl)[C@@H](Cl)C[C@H]3[C@@]1(Cl)C2(Cl)Cl [trans-chlordane] | 0.0074 |
| ClC(Cl)=C(c1ccc(Cl)cc1)c1ccc(Cl)cc1 [1,1-dichloro-2,2-bis-(4-chlorophenyl)-ethene] | 0.0081 |
| ClC1C(Cl)C(Cl)C(Cl)C(Cl)C1Cl (stereo not drawn) [α-1,2,3,4,5,6-hexachlorocyclohexane] | 0.42 |
| Clc1ccc(-c2ccc(Cl)c(Cl)c2)cc1 [3,4,4'-trichlorobiphenyl] | 0.012 |
| Clc1ccc(-c2ccc(Cl)c(Cl)c2Cl)cc1 [2,3,4,4'-tetrachlorobiphenyl] | 0.012 |
